Measured values from the CheMixHub ionic liquid set.
Values joined by “and” are separate entries in the source; they are usually repeats but may differ in a detail not shown here. Equal values may be shown once. ± gives the uncertainty stated by the source.

Assay: xn = mol fraction of the nth substance listed
Details: 101.3 kPa

## CCCC[N+]1(C)CCCCC1.F[P-](F)(F)(F)(F)F + CCCC[n+]1cccc(C)c1.F[P-](F)(F)(F)(F)F + CCCC[N+]1(C)CCCC1.F[P-](F)(F)(F)(F)F
298.15 K, x2 = 0.4, x1 = 0.24
  viscosity: 1666 ± 82 mPa·s and 1686 ± 230 mPa·s
298.15 K, x2 = 0.4, x1 = 0.3
  viscosity: 1857 ± 94 mPa·s
298.15 K, x2 = 0.4, x1 = 0.36
  viscosity: 2084 ± 110 mPa·s
298.15 K, x2 = 0.4, x1 = 0.42
  viscosity: 2332 ± 120 mPa·s
298.15 K, x2 = 0.4, x1 = 0.48
  viscosity: 2615 ± 140 mPa·s
298.15 K, x2 = 0.4, x1 = 0.54
  viscosity: 2945 ± 170 mPa·s
303.15 K, x2 = 0.4, x1 = 0.06
  viscosity: 794 ± 33 mPa·s
303.15 K, x2 = 0.4, x1 = 0.12
  viscosity: 916 ± 39 mPa·s
303.15 K, x2 = 0.4, x1 = 0.18
  viscosity: 964 ± 42 mPa·s
303.15 K, x2 = 0.4, x1 = 0.24
  viscosity: 1130 ± 52 mPa·s and 1143 ± 130 mPa·s
303.15 K, x2 = 0.4, x1 = 0.3
  viscosity: 1248 ± 59 mPa·s
303.15 K, x2 = 0.4, x1 = 0.36
  viscosity: 1390 ± 68 mPa·s
303.15 K, x2 = 0.4, x1 = 0.42
  viscosity: 1544 ± 77 mPa·s
303.15 K, x2 = 0.4, x1 = 0.48
  viscosity: 1714 ± 87 mPa·s
303.15 K, x2 = 0.4, x1 = 0.54
  viscosity: 1917 ± 100 mPa·s
308.15 K, x2 = 0.3, x1 = 0.28
  viscosity: 964 ± 96 mPa·s
308.15 K, x2 = 0.4, x1 = 0.06
  viscosity: 568 ± 22 mPa·s
308.15 K, x2 = 0.4, x1 = 0.12
  viscosity: 648 ± 26 mPa·s
308.15 K, x2 = 0.4, x1 = 0.18
  viscosity: 680 ± 28 mPa·s
308.15 K, x2 = 0.4, x1 = 0.24
  viscosity: 783 ± 33 mPa·s and 791 ± 72 mPa·s
308.15 K, x2 = 0.4, x1 = 0.3
  viscosity: 859 ± 37 mPa·s
308.15 K, x2 = 0.4, x1 = 0.36
  viscosity: 948 ± 42 mPa·s
308.15 K, x2 = 0.4, x1 = 0.42
  viscosity: 1045 ± 48 mPa·s
308.15 K, x2 = 0.4, x1 = 0.48
  viscosity: 1152 ± 54 mPa·s
308.15 K, x2 = 0.4, x1 = 0.54
  viscosity: 1278 ± 61 mPa·s
308.15 K, x2 = 0.5, x1 = 0.2
  viscosity: 648 ± 54 mPa·s
308.15 K, x2 = 0.6, x1 = 0.16
  viscosity: 534 ± 40 mPa·s
313.15 K, x2 = 0.3, x1 = 0.28
  viscosity: 684 ± 57 mPa·s
313.15 K, x2 = 0.4, x1 = 0.06
  viscosity: 413 ± 15 mPa·s
313.15 K, x2 = 0.4, x1 = 0.12
  viscosity: 467 ± 17 mPa·s
313.15 K, x2 = 0.4, x1 = 0.18
  viscosity: 488 ± 18 mPa·s
313.15 K, x2 = 0.4, x1 = 0.24
  viscosity: 556 ± 21 mPa·s and 561 ± 42 mPa·s
313.15 K, x2 = 0.4, x1 = 0.3
  viscosity: 606 ± 24 mPa·s
313.15 K, x2 = 0.4, x1 = 0.36
  viscosity: 664 ± 27 mPa·s
313.15 K, x2 = 0.4, x1 = 0.42
  viscosity: 727 ± 30 mPa·s
313.15 K, x2 = 0.4, x1 = 0.48
  viscosity: 795 ± 34 mPa·s
313.15 K, x2 = 0.4, x1 = 0.54
  viscosity: 875 ± 38 mPa·s
313.15 K, x2 = 0.5, x1 = 0.2
  viscosity: 465 ± 32 mPa·s
313.15 K, x2 = 0.6, x1 = 0.16
  viscosity: 385 ± 24 mPa·s
313.15 K, x2 = 0.7, x1 = 0.12
  viscosity: 325 ± 19 mPa·s
318.15 K, x2 = 0.2, x1 = 0.32
  viscosity: 596 ± 45 mPa·s
318.15 K, x2 = 0.3, x1 = 0.28
  viscosity: 495 ± 35 mPa·s
318.15 K, x2 = 0.4, x1 = 0.06
  viscosity: 306 ± 10 mPa·s
318.15 K, x2 = 0.4, x1 = 0.12
  viscosity: 344 ± 12 mPa·s
318.15 K, x2 = 0.4, x1 = 0.18
  viscosity: 358 ± 12 mPa·s
318.15 K, x2 = 0.4, x1 = 0.24
  viscosity: 404 ± 14 mPa·s and 407 ± 26 mPa·s
318.15 K, x2 = 0.4, x1 = 0.3
  viscosity: 437 ± 16 mPa·s
318.15 K, x2 = 0.4, x1 = 0.36
  viscosity: 476 ± 18 mPa·s
318.15 K, x2 = 0.4, x1 = 0.42
  viscosity: 518 ± 20 mPa·s
318.15 K, x2 = 0.4, x1 = 0.48
  viscosity: 563 ± 22 mPa·s
318.15 K, x2 = 0.4, x1 = 0.54
  viscosity: 615 ± 24 mPa·s
318.15 K, x2 = 0.5, x1 = 0.2
  viscosity: 340 ± 20 mPa·s
318.15 K, x2 = 0.6, x1 = 0.16
  viscosity: 284 ± 15 mPa·s
318.15 K, x2 = 0.7, x1 = 0.12
  viscosity: 241 ± 12 mPa·s
318.15 K, x2 = 0.8, x1 = 0.08
  viscosity: 206 ± 9 mPa·s
323.15 K, x2 = 0.2, x1 = 0.32
  viscosity: 439 ± 28 mPa·s
323.15 K, x2 = 0.3, x1 = 0.28
  viscosity: 365 ± 22 mPa·s
323.15 K, x2 = 0.4, x1 = 0.06
  viscosity: 232 ± 7 mPa·s
323.15 K, x2 = 0.4, x1 = 0.12
  viscosity: 258 ± 8 mPa·s
323.15 K, x2 = 0.4, x1 = 0.18
  viscosity: 268 ± 8 mPa·s
323.15 K, x2 = 0.4, x1 = 0.24
  viscosity: 300 ± 10 mPa·s and 302 ± 16 mPa·s
323.15 K, x2 = 0.4, x1 = 0.3
  viscosity: 323 ± 11 mPa·s
323.15 K, x2 = 0.4, x1 = 0.36
  viscosity: 349 ± 12 mPa·s
323.15 K, x2 = 0.4, x1 = 0.42
  viscosity: 378 ± 13 mPa·s
323.15 K, x2 = 0.4, x1 = 0.48
  viscosity: 408 ± 14 mPa·s
323.15 K, x2 = 0.4, x1 = 0.54
  viscosity: 444 ± 16 mPa·s
323.15 K, x2 = 0.5, x1 = 0.2
  viscosity: 253 ± 12 mPa·s
323.15 K, x2 = 0.6, x1 = 0.16
  viscosity: 213 ± 9 mPa·s
323.15 K, x2 = 0.7, x1 = 0.12
  viscosity: 182 ± 7 mPa·s
323.15 K, x2 = 0.8, x1 = 0.08
  viscosity: 157 ± 6 mPa·s
323.15 K, x2 = 0.9, x1 = 0.04
  viscosity: 136 ± 5 mPa·s
328.15 K, x2 = 0.2, x1 = 0.32
  viscosity: 329 ± 18 mPa·s
328.15 K, x2 = 0.3, x1 = 0.28
  viscosity: 274 ± 14 mPa·s
328.15 K, x2 = 0.4, x1 = 0.06
  viscosity: 178 ± 5 mPa·s
328.15 K, x2 = 0.4, x1 = 0.12
  viscosity: 197 ± 6 mPa·s
328.15 K, x2 = 0.4, x1 = 0.18
  viscosity: 204 ± 6 mPa·s
328.15 K, x2 = 0.4, x1 = 0.24
  viscosity: 227 ± 7 mPa·s and 229 ± 10 mPa·s
328.15 K, x2 = 0.4, x1 = 0.3
  viscosity: 243 ± 7 mPa·s
328.15 K, x2 = 0.4, x1 = 0.36
  viscosity: 261 ± 8 mPa·s
328.15 K, x2 = 0.4, x1 = 0.42
  viscosity: 281 ± 9 mPa·s
328.15 K, x2 = 0.4, x1 = 0.48
  viscosity: 302 ± 10 mPa·s
328.15 K, x2 = 0.4, x1 = 0.54
  viscosity: 327 ± 11 mPa·s
328.15 K, x2 = 0.5, x1 = 0.2
  viscosity: 192 ± 8 mPa·s
328.15 K, x2 = 0.6, x1 = 0.16
  viscosity: 163 ± 6 mPa·s
328.15 K, x2 = 0.7, x1 = 0.12
  viscosity: 140 ± 5 mPa·s
328.15 K, x2 = 0.8, x1 = 0.08
  viscosity: 121 ± 4 mPa·s
328.15 K, x2 = 0.9, x1 = 0.04
  viscosity: 106 ± 3 mPa·s
333.15 K, x2 = 0.2, x1 = 0.32
  viscosity: 250 ± 12 mPa·s
333.15 K, x2 = 0.3, x1 = 0.28
  viscosity: 210 ± 9 mPa·s
333.15 K, x2 = 0.4, x1 = 0.06
  viscosity: 139 ± 4 mPa·s
333.15 K, x2 = 0.4, x1 = 0.12
  viscosity: 153 ± 4 mPa·s
333.15 K, x2 = 0.4, x1 = 0.18
  viscosity: 158 ± 4 mPa·s
333.15 K, x2 = 0.4, x1 = 0.24
  viscosity: 175 ± 5 mPa·s and 176 ± 7 mPa·s
333.15 K, x2 = 0.4, x1 = 0.3
  viscosity: 186 ± 5 mPa·s
333.15 K, x2 = 0.4, x1 = 0.36
  viscosity: 199 ± 6 mPa·s
333.15 K, x2 = 0.4, x1 = 0.42
  viscosity: 214 ± 6 mPa·s
333.15 K, x2 = 0.4, x1 = 0.48
  viscosity: 228 ± 7 mPa·s
333.15 K, x2 = 0.4, x1 = 0.54
  viscosity: 246 ± 8 mPa·s
333.15 K, x2 = 0.5, x1 = 0.2
  viscosity: 149 ± 5 mPa·s
